{"source": "patent US6147077A", "about": "“2R,4S-hydroxyitraconazole isomers” (priority 1999, dated 2000)", "key": {"Candida albicans [1]": {"test_system": "Candida albicans", "assay": "Kirby-Bauer Testing, Candida albicans", "type": "cell-based", "conditions": "10 μl of 10 mg/mL per disk, 30° C., 16 hours", "description": "The hydroxyitraconazole isomers were tested for biological activity according three different assays. Table 2 summarizes the results of Kirby-Bauer Testing against three actively growing cultures: Candida albicans, Cryptococcus neoformens and Saccromyces cerevisiae. […] A 10 mL tube containing 4 mL of Sabourauds dextrose broth was inoculated with 1 colony of Candida albicans picked from a plate of pure culture. The strain was ordered from the American Type Culture Collection (ATCC). The organism was grown for 4 hours at 30° C. while shaking at 150 RPM. While the organism was growing, samples of hydroxy-itraconazoles were solubilized to a concentration of 10 mg/mL in DMSO. Each sample was then diluted 1:10 to make 1 mg/mL samples or 1000 μg/mL. […] A 96-well microtiter dish was set up with 98 μL of liquid growth media in each test well, along with 1 μL of hydroxy-itraconazole solution. At 4 hours of growth time the Candida albicans was diluted to a 0.5 McFarland standard representing about 10^5 -10^6 cells/mL and 1 μL of this inoculum placed into each test well of the microtiter dish. The dish was then covered and incubated at 30° C. for 16 hours. Actively growing cultures of Candida albicans, Cryptococcus neoformens and Saccharomyces cerevisiae were prepared as described above. […] Zones of inhibition were then measured in mm."}, "cytochrome P450 3A4 [2]": {"molecular_target": "T1, cytochrome P450 3A4 (Homo sapiens, UniProt P08684)", "T1 sequence (P08684 whole entry)": "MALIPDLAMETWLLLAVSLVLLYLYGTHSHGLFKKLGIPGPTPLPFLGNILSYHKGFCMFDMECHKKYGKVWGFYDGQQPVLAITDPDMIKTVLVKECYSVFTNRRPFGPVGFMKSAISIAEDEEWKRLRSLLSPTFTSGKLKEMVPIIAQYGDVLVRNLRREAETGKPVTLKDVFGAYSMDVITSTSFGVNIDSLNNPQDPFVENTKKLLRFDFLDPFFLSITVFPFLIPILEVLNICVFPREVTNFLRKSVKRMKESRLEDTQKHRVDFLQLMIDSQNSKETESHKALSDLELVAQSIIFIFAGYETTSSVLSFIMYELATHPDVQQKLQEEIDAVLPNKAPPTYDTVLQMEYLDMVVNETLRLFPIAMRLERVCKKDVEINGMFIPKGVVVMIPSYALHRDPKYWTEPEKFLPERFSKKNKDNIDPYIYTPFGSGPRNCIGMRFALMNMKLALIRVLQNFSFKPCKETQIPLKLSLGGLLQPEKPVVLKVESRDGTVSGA"}, "[3]": {"assay": "Water solubility of hydroxyitraconazole phosphate isomers (NMG salts)", "type": "physicochemical", "conditions": "water; Table 8", "text": "The water solubility of the NMG salts of the phosphate esters of isomers 1, 2 and 3+4 were investigated and compared to the corresponding hydroxyitraconazole isomers 1, 2 and 3+4. The phosphate esters were as much as 10^7 times more water soluble than the corresponding hydroxyitraconazole isomer."}, "Sacchromyces cerevisae": {"test_system": "Sacchromyces cerevisae", "assay": "Kirby-Bauer Testing, Saccharomyces cerevisiae", "type": "cell-based", "conditions": "Saccharomyces cerevisiae, 10 μl of 10 mg/mL per disk, 30° C., 16 hours", "description": "The hydroxyitraconazole isomers were tested for biological activity according three different assays.\nActively growing cultures of Candida albicans, Cryptococcus neoformens and Saccharomyces cerevisiae were prepared as described above. The cultures were diluted to a 0.5 McFarland standard and swabbed onto a 150 mm Sabouraud Dextrose agar plates. Paper disks (7 mm) were placed onto the agar plates using a disk dispenser. […] The plates were then incubated at 30° C. for 16 hours. Zones of inhibition were then measured in mm."}, "A. fumigatis": {"test_system": "A. fumigatis", "assay": "Antifungal MIC, A. fumigatis", "type": "cell-based", "conditions": "A. fumigatis (Table 3)", "description": "[The source words this procedure for another organism and reports this organism under the same test.] (§1) A 10 mL tube containing 4 mL of Sabourauds dextrose broth was inoculated with 1 colony of Candida albicans picked from a plate of pure culture. The strain was ordered from the American Type Culture Collection (ATCC). The organism was grown for 4 hours at 30° C. while shaking at 150 RPM. While the organism was growing, samples of hydroxy-itraconazoles were solubilized to a concentration of 10 mg/mL in DMSO. Each sample was then diluted 1:10 to make 1 mg/mL samples or 1000 μg/mL. These samples were then diluted by serial 2-fold dilutions to produce samples now containing 1000, 500, 250, 125, 62.5, 31.25, 15.6 μg/mL. […] At 4 hours of growth time the Candida albicans was diluted to a 0.5 McFarland standard representing about 10^5 -10^6 cells/mL and 1 μL of this inoculum placed into each test well of the microtiter dish. The dish was then covered and incubated at 30° C. for 16 hours."}, "Cr. neoformens": {"test_system": "Cr. neoformens", "assay": "Antifungal MIC, Cr. neoformens", "type": "cell-based, Cryptococcus neoformens", "conditions": "Cryptococcus; Cr. neoformens (Table 3)", "description": "[The source words this procedure for another organism and reports this organism under the same test.] as §1"}, "cytochrome P450 3A4 [4]": {"molecular_target": "T1, cytochrome P450 3A4", "assay": "Inhibition of cytochrome P450 3A4 (testosterone 6β-hydroxylase activity)"}, "[5]": {"assay": "Water solubility of hydroxyitraconazole isomers and itraconazole", "type": "physicochemical", "description": "The isomers of cis hydroxyitraconazole were tested for water solubility against a […] standard solution of hydroxyitraconazole. […] The values for 3+4 and 11+12 are barely above the LOD, giving accuracies of ±10%. In every case, solubilities were in the 10^1 to 10^2 ng/ml range."}, "Candida albicans [6]": {"test_system": "Candida albicans", "assay": "Antifungal MIC, Candida albicans", "type": "cell-based", "conditions": "Candida albicans", "description": "as §1"}, "S. cerevisae": {"test_system": "S. cerevisae", "assay": "Antifungal MIC, S. cerevisae", "type": "cell-based, Saccharomyces cerevisiae", "conditions": "Saccharomyces cerevisiae; S. cerevisae (Table 3)", "description": "[The source words this procedure for another organism and reports this organism under the same test.] as §1"}, "Cryptococcus neoformens": {"test_system": "Cryptococcus neoformens", "assay": "Kirby-Bauer Testing, Cryptococcus neoformens", "type": "cell-based", "conditions": "10 μl of 10 mg/mL per disk, 30° C., 16 hours", "description": "The hydroxyitraconazole isomers were tested for biological activity according three different assays. Table 2 summarizes the results of Kirby-Bauer Testing against three actively growing cultures: Candida albicans, Cryptococcus neoformens and Saccromyces cerevisiae.\nActively growing cultures of Candida albicans, Cryptococcus neoformens and Saccharomyces cerevisiae were prepared as described above. The cultures were diluted to a 0.5 McFarland standard and swabbed onto a 150 mm Sabouraud Dextrose agar plates. Paper disks (7 mm) were placed onto the agar plates using a disk dispenser. Next 10 μl of 10 mg/mL solutions of each sample hydroxy-itraconazole was pipetted onto separate paper disks. The plates were then incubated at 30° C. for 16 hours. Zones of inhibition were then measured in mm."}, "Aspergillis": {"test_system": "Aspergillis", "assay": "Kirby-Bauer Testing, Aspergillis", "type": "cell-based", "conditions": "16 h, 10 μl of 10 mg/mL per disk"}, "[7]": {"conditions": "cited from earlier work"}, "synthesis of ergosterol": {"test_system": "synthesis of ergosterol", "conditions": "cited from earlier work"}, "fungi and bacteria": {"test_system": "fungi and bacteria", "conditions": "cited from earlier work"}, "[8]": {"conditions": "cited from earlier work", "remark": "listed apart in the source"}}, "note": "Entries after “also recorded” stand apart in the source; their conditions may differ. Like-named read-outs stand apart in the source and are kept apart here."}
{"compound": "C[C@@H](O)[C@H](C)n1ncn(-c2ccc(N3CCN(c4ccc(OC[C@H]5CO[C@](Cn6cncn6)(c6ccc(Cl)cc6Cl)O5)cc4)CC3)cc2)c1=O", "note": "[Compound 1]", "values": [{"measurement": "zone of inhibition at 10000 µg/mL", "setting": "Candida albicans [1]", "value": 22, "unit": "mm"}, {"measurement": "Inhibition of P450 3A4 in words", "setting": "cytochrome P450 3A4 [2]", "value": "notably less inhibition of the P450 3A4 enzyme than the 2S,4R isomers"}, {"measurement": "solubility", "setting": "[3]", "value": 0.051, "unit": "µg/mL"}, {"measurement": "zone of inhibition at 10000 µg/mL", "setting": "Sacchromyces cerevisae", "value": 22, "unit": "mm"}, {"measurement": "MIC", "setting": "A. fumigatis", "value": 0.137, "unit": "µg/mL"}, {"measurement": "MIC", "setting": "Cr. neoformens", "value": 0.39, "unit": "µg/mL"}, {"measurement": "IC50", "setting": "cytochrome P450 3A4 [4]", "value": 2800, "unit": "nM"}, {"measurement": "selectivity ratio", "setting": "cytochrome P450 3A4 [4]", "value": 56}, {"measurement": "IC50/MIC ratio in words", "setting": "cytochrome P450 3A4 [4]; therapeutic index, 3A4 vs C. albicans 44203", "value": "excellent results"}, {"measurement": "solubility", "setting": "[5]; water, LOD: 5000 μV*sec, order-of-magnitude accuracy below LOD, 3+4 and 11+12 ±10%", "value": 0.051, "unit": "µg/mL"}, {"measurement": "Area", "setting": "[5]; λmax = 260 nm, LOD 5000 μV*sec", "value": 1499, "unit": "μV*sec"}, {"measurement": "MIC", "setting": "Candida albicans [6]; C. albicans strain 10231 (Table 3), read-out: Antifungal MIC", "value": 1, "unit": "µg/mL"}, {"measurement": "MIC", "setting": "Candida albicans [6]; C. albicans strain 28516 (Table 3), read-out: Antifungal MIC", "value": 0.25, "unit": "µg/mL"}, {"measurement": "MIC", "setting": "Candida albicans [6]; C. albicans strain 28815 (Table 3), read-out: Antifungal MIC", "value": 0.125, "unit": "µg/mL"}, {"measurement": "MIC", "setting": "Candida albicans [6]; C. albicans strain 44203 (Table 3), read-out: Antifungal MIC", "value": 0.05, "unit": "µg/mL"}, {"measurement": "MIC", "setting": "Candida albicans [6]; C. albicans strain 44373 (Table 3), read-out: Antifungal MIC", "value": 0.5, "unit": "µg/mL"}, {"measurement": "MIC", "setting": "Candida albicans [6]; C. albicans strain 62342 (Table 3), read-out: Antifungal MIC", "value": 0.5, "unit": "µg/mL"}, {"measurement": "MIC", "setting": "Candida albicans [6]; Candida albicans strain 44203 (Table 4), read-out: MIC", "value": 0.05, "unit": "µg/mL"}, {"measurement": "MIC", "setting": "S. cerevisae", "value": 0.195, "unit": "µg/mL"}, {"measurement": "zone of inhibition at 10000 µg/mL", "setting": "Cryptococcus neoformens", "value": 28, "unit": "mm"}, {"measurement": "zone of inhibition at 10000 µg/mL", "setting": "Aspergillis", "value": 27, "unit": "mm"}]}
{"compound": "CCC(C)n1ncn(-c2ccc(N3CCN(c4ccc(OC[C@H]5CO[C@](Cn6cncn6)(c6ccc(Cl)cc6Cl)O5)cc4)CC3)cc2)c1=O", "note": "(relative stereo) [itraconazole, 4-[4-[4-[4-[[2-(2,4-dichlorophenyl)-2-(1H-1,2,4-triazol-1-ylmethyl)-1,3-dioxolan-4-yl]methoxy]phenyl]-1-piperazinyl]phenyl]-2,4-dihydro-2-(1-methylpropyl)-3H-1,2,4-triazol-3-one]", "values": [{"measurement": "zone of inhibition at 10000 µg/mL", "setting": "Sacchromyces cerevisae", "value": 15, "unit": "mm"}, {"measurement": "Adverse effects", "setting": "[7]; administration of itraconazole", "value": "hepatotoxicity and inhibition of drug metabolism in the liver; also recorded: Hypersensitivity reactions including urticaria and elevations in serum liver enzymes"}, {"measurement": "Torsades de Pointes", "setting": "[7]; racemic itraconazole concurrently with terfenadine", "value": "Torsades de Pointes, has been reported"}, {"measurement": "Water solubility", "setting": "[5]; LOD: 5000 μV*sec, order-of-magnitude accuracy below LOD, 3+4 and 11+12 ±10%, listed as Itraconazole", "value": "such low water solubility that it could not be determined by this method"}, {"measurement": "Water solubility", "setting": "[5]; LOD: 5000 μV*sec, order-of-magnitude accuracy below LOD, 3+4 and 11+12 ±10%, listed as ±Itraconazole", "value": "not detected"}, {"measurement": "MIC", "setting": "Candida albicans [6]", "value": 0.06, "unit": "µg/mL"}, {"measurement": "Effect on synthesis of ergosterol", "setting": "synthesis of ergosterol", "value": "impairs the synthesis of ergosterol"}, {"measurement": "Effect of serum on antifungal activity", "setting": "fungi and bacteria; Sabouraud broth containing 10% inactivated bovine serum", "value": "enhanced in vitro"}, {"measurement": "Inhibition of growth", "setting": "fungi and bacteria; Sabouraud broth, 14 days, Microsporum canis, Trichophyton mentagrophytes, Candida albicans, Aspergillus spp. and others", "value": "Complete or marked inhibition of growth"}, {"measurement": "Urinary excretion of metabolites", "setting": "[8]; in most subjects", "value": "no metabolites are excreted in the urine"}, {"measurement": "Absorption following oral administration", "setting": "[8]; oral", "value": "slowly absorbed"}, {"measurement": "Pharmacokinetic behavior", "setting": "[8]; oral", "value": "nonlinear"}]}
